Data from patent US20250290915A1, “METHOD FOR PREDICTING RESPONSIVENESS TO THERAPY” (CANCERTAIN LIMITED, priority 2022, published 2025).

Tests used:
Format in all cases: cell-based, human
[1] = system: Circulating Tumour Cells (CTCs) from a patient with head and neck cancer (squamous cell carcinoma); assay: Drug response score assay on CTCs from blood, Example 6
Protocol: (§1) CD45^+ cells and circulating tumour cells (CTCs) were isolated from a blood sample provided by each subject.
(§2) CD45 separation was performed by adding human CD45 microbeads (50 μl/ml blood), incubating for 15 minutes at 4° C. and then processing using an AutoMACS machine. This separates the blood sample into CD45^+ and CD45^−cells in 2 separate falcons. The falcon tubes are then centrifuged at 1200 rpm for 5 minutes.
(§3) The supernatant was removed from the CD45^−falcon tube, and the CD45^−cells contacted with 100 μl of FcR block and 100 μl of CD326 (EpCAM) MicroBeads, followed by incubation at […] 4° C. for 30 minutes. The CD45^−cells were then processed using an AutoMACS machine to separate the EpCAM positive and negative cells into 2 separate falcon tubes. The EpCAM-cells were discarded. The supernatant was removed from the EpCAM^+ cells, and the cells resuspended in DMEM with 2 μl Cell Tox, 2 μl MT and 2 μl MT. 20 μl of the resuspended pellet was then added to all sample wells excluding a blank. After all wells are added to, a cell count was conducted on the […] to determine the number of circulating tumour cells (CTCs).
(§4) The different cell types were each divided equally into populations, depending on the number of drugs/concentrations to be tested and plated on a cell-culture plate pre-coated with a scaffold of polycaprolactone (PCL) electrospun fibres and incubated at 37° C., 5% CO2, for 5 to (typically 10) minutes to facilitate cell attachment. After attachment, an initial imaging step was carried out using the RealTime-Glo™ MT assay from Promega (Catalogue No. G9711)) and the CellTox™ Green Cytotoxicity Assay (Promega, Catalogue No. G8741), carried out according to manufacturer's instructions. Following this initial imagining, the immunotherapeutic and/or chemotherapeutic agents were added to the cell populations as indicated below. After 10 minutes, the imagining step was repeated. The cell populations were then incubated at 37° C., 5% CO2 for 48 hours. The imaging step was then repeated. The cell populations were then re-dosed with the same immunotherapeutic and/or chemotherapeutic agents as indicated below, and incubated at 37° C., 5% CO2 for a further 48 hours. After this second 48 hour incubation, the imagining step was repeated for a final time.
(§5) At the end of this culture period, dose response scores were calculated using a normalized drug response metric as described in Gupta et al. (Communications Biology volume 3, Article number: 42 (2020), https://doi.org/10.1038/s42003-020-0765-z). The start readout for a given immunotherapeutic or chemotherapeutic agent at a given concentration was the to readout for said immunotherapeutic or chemotherapeutic agent at a specified concentration. The end readout for a given immunotherapeutic or chemotherapeutic agent at a given concentration was the final timepoint reading (t96h) for said immunotherapeutic or chemotherapeutic agent at a specified concentration.
(§6) The positive control start readout for a given drug/concentration was the to readout for the corresponding drug at a specified concentration. The positive control end readout for the corresponding drug at a specified concentration was the final timepoint reading (t96h) for the corresponding blank well.
(§7) The negative control start and end readouts for a given immunotherapeutic or chemotherapeutic agent at a given concentration were the to and final timepoint reading (t96h) respectively for blank cell or blank immuno cell well respectively.
(§8) The sensitivity or resistance of a subject's cancer to a given immunotherapeutic or chemotherapeutic agent was determined based on the calculated drug response score as shown in Table 2.
Blood samples from a patient with head and neck cancer (squamous cell carcinoma) were received on 11 Mar. 2022 and tested using a 7 drug panel.

[2] = system: Circulating Tumour Cells (CTCs) from a patient with renal cancer; assay: Drug response score assay on CTCs (with CD45+ cells for immunotherapy) from blood, Example 7; parameters: key to Drug response score, conc. 1 / Drug response score, conc. 2 / Drug response score, conc. 3 / Drug response score, conc. 4: normalized drug response metric per Gupta et al. 2020; details: for Drug response score, conc. 1: conc. 1: Pembr 20 μg/ml (CTCs + CD45+ cells), Docetax 0.02 μg/ml, Gemcit 2 μg/ml, Topo 5 μg/ml, Etop 1 μg/ml, Eribul 5 μg/ml (CTCs); for Drug response score, conc. 1 / Drug response score, conc. 2 / Drug response score, conc. 3 / Drug response score, conc. 4: t96h; for Drug response score, conc. 2: conc. 2: Pembr 40 μg/ml (CTCs + CD45+ cells), Docetax 0.2 μg/ml, Gemcit 10 μg/ml, Topo 10 μg/ml, Etop 4 μg/ml, Eribul 10 μg/ml (CTCs); for Drug response score, conc. 3: conc. 3: Pembr 100 μg/ml (CTCs + CD45+ cells), Docetax 2 μg/ml, Gemcit 20 μg/ml, Topo 50 μg/ml, Etop 20 μg/ml, Eribul 20 μg/ml (CTCs); for Drug response score, conc. 4: conc. 4: Pembr 160 μg/ml (CTCs + CD45+ cells), Docetax 10 μg/ml, Gemcit 40 μg/ml, Topo 100 μg/ml, Etop 100 μg/ml, Eribul 40 μg/ml (CTCs); for Drug sensitivity as calculated by the assay (interpretation of Drug Response Scores): Table 23
Protocol: as §1, §2
The supernatant was removed from the CD45^+falcon tube, and the cells resuspended in DMEM with 2 μl Cell Tox, 2 μl MT and 2 μl MT. 20 μl of the resuspended CD45^+ cells was then plated in each well which will contain an immunotherapy treatment.
as §3, §4, §5, §6, §7
The sensitivity or resistance of a subject's cancer to a given immunotherapeutic or chemotherapeutic agent was determined based on the calculated drug response score as shown in Table 2. […]

[3] = system: Circulating Tumour Cells (CTCs) from a patient with colon cancer (sigmoid colon cancer); assay: Drug response score assay on CTCs from blood, Example 8; parameters: key to Drug response score, conc. 1 / Drug response score, conc. 2 / Drug response score, conc. 3 / Drug response score, conc. 4: normalized drug response metric (Gupta et al. 2020); details: for Drug response score, conc. 1: conc. 1 of each drug as in Table 24; for Drug response score, conc. 1 / Drug response score, conc. 2 / Drug response score, conc. 3 / Drug response score, conc. 4: CTCs, t96h; for Drug response score, conc. 2: conc. 2 of each drug as in Table 24; for Drug response score, conc. 3: conc. 3 of each drug as in Table 24; for Drug response score, conc. 4: conc. 4 of each drug as in Table 24; for Drug sensitivity as calculated by the assay (interpretation of Drug Response Scores): sigmoid colon cancer CTCs, Table 26
Protocol: as §1, §2, §3
as §4, with “After” for “The different cell types were each divided equally into populations, depending on the number of drugs/concentrations to be tested and plated on a cell-culture plate pre-coated with a scaffold of polycaprolactone (PCL) electrospun fibres and incubated at 37° C., 5% CO2, for 5 to (typically 10) minutes to facilitate cell attachment. After”
as §5, §6, §7, §8
Blood samples from a patient with colon cancer (sigmoid colon cancer) were received on 8 Mar. 2022 and tested using a 9 drug panel.
Chemotherapeutic agents were tested as in Table 24.

[4] = system: Circulating Tumour Cells (CTCs) from a patient with sex cord stromal tumour, ovarian tumour; assay: Drug response score assay on CTCs from blood, Example 4; parameters: key to Drug response score, conc. 1 / Drug response score, conc. 2 / Drug response score, conc. 3 / Drug response score, conc. 4: normalized drug response metric (Gupta et al. 2020)
Protocol: as §1, §2, §3, §4, §5, §6, §7, §8
Blood samples from a patient with sex cord stromal tumour, ovarian tumour (epitheliod neoplasm, stage 3 recurrence after surgery (resection) and previous chemotherapy) were received on 19 Jul. 2021 and tested using a 5 drug panel. […]

[5] = system: Circulating Tumour Cells (CTCs, EpCam+CD45−) from a patient with stage II synovial sarcoma; assay: Drug response score assay (RealTime-Glo MT / CellTox Green, PCL scaffold) on CTCs from blood, Example 1; parameters: key to Drug response score, conc. 1 / Drug response score, conc. 2 / Drug response score, conc. 3 / Drug response score, conc. 4: normalized drug response metric per Gupta et al. 2020; details: for Drug response score, conc. 1: conc. 1: Doxo 10 ng/ml, Ifos 0.125 μg/ml, Gemcit 2 μg/ml, Doce 0.02 μg/ml, Carbo 2 μg/ml, Dacarb 1.5 μg/ml, re-dosed at 48 h; for Drug response score, conc. 1 / Drug response score, conc. 2 / Drug response score, conc. 3 / Drug response score, conc. 4: CTCs, t96h; for Drug response score, conc. 2: conc. 2: Doxo 30 ng/ml, Ifos 0.25 μg/ml, Gemcit 10 μg/ml, Doce 0.2 μg/ml, Carbo 5 μg/ml, Dacarb 3 μg/ml; for Drug response score, conc. 3: conc. 3: Doxo 90 ng/ml, Ifos 5 μg/ml, Gemcit 20 μg/ml, Doce 2 μg/ml, Carbo 10 μg/ml, Dacarb 6 μg/ml; for Drug response score, conc. 4: conc. 4: Doxo 270 ng/ml, Ifos 10 μg/ml, Gemcit 40 μg/ml, Doce 10 μg/ml, Carbo 20 μg/ml, Dacarb 12 μg/ml
Protocol: as §1, §2, §3, §4, §5, §6, §7, §8
Blood samples from a patient with stage II synovial sarcoma (suspected spindle cell tumour) were received and tested using a 6 drug panel.
Chemotherapeutic agents were tested as in Table 3.

Row | Compound | Drug response score, conc. 1 [2] | Drug response score, conc. 2 [2] | Drug response score, conc. 3 [2] | Drug response score, conc. 4 [2] | Drug sensitivity as calculated by the assay (interpretation of Drug Response Scores) ([2]; renal cancer CTCs) | Drug response score, conc. 1 [3] | Drug response score, conc. 2 [3] | Drug response score, conc. 3 [3] | Drug response score, conc. 4 [3] | Drug sensitivity as calculated by the assay (interpretation of Drug Response Scores) [3] | Drug response score, conc. 1 [5] | Drug response score, conc. 2 [5] | Drug response score, conc. 3 [5] | Drug response score, conc. 4 [5] | further results
1 | CCCCCOC(=O)Nc1nc(=O)n([C@@H]2O[C@H](C)[C@@H](O)[C@H]2O)cc1F [Capecitabine] |  |  |  |  |  |  |  |  |  |  |  |  |  |  | Drug response score, conc. 1 ([1]; conc. 1: Ifos 0.125 μg/ml, Gemcit 2 μg/ml, Doxo 10 ng/ml, Etop 1 μg/ml, Metho 0.5 μg/ml, Capecit 200 μg/ml, Vinor 20 μg/ml, CTCs, t96h): 0.7820; Drug response score, conc. 2 ([1]; conc. 2: Ifos 0.25 μg/ml, Gemcit 10 μg/ml, Doxo 30 ng/ml, Etop 4 μg/ml, Metho 1 μg/ml, Capecit 300 μg/ml, Vinor 40 μg/ml, CTCs, t96h): 0.9244; Drug response score, conc. 3 ([1]; conc. 3: Ifos 5 μg/ml, Gemcit 20 μg/ml, Doxo 90 ng/ml, Etop 20 μg/ml, Metho 2 μg/ml, Capecit 400 μg/ml, Vinor 80 μg/ml, CTCs, t96h): 0.6113; Drug response score, conc. 4 ([1]; conc. 4: Ifos 10 μg/ml, Gemcit 40 μg/ml, Doxo 270 ng/ml, Etop 100 μg/ml, Metho 4 μg/ml, Capecit 600 μg/ml, Vinor 200 μg/ml, CTCs, t96h): 1.0037; effectiveness on Circulating Tumour Cells under laboratory conditions ([1]; head and neck cancer CTCs): not effective; Drug sensitivity as calculated by the assay (interpretation of Drug Response Scores) ([1]; head and neck cancer CTCs, Table 20): Resistant
2 | CC[C@@]1(O)C(=O)OCc2c1cc1n(c2=O)Cc2cc3c(CN(C)C)c(O)ccc3nc2-1 [Topotecan] | 0.1847 | −0.0648 | −0.0964 | −0.1707 | Sensitive (S++) |  |  |  |  |  |  |  |  |  | effectiveness on Circulating Tumour Cells under laboratory conditions ([2]; renal cancer CTCs): Sensitive S++
3 | C=C1C[C@@H]2CC[C@@]34C[C@H]5O[C@H]6[C@@H](O3)[C@H]3O[C@H](CC[C@@H]3O[C@H]6[C@H]5O4)CC(=O)C[C@@H]3[C@@H](OC)[C@@H](C[C@H](O)CN)O[C@H]3C[C@H]3O[C@@H](CC[C@@H]1O2)C[C@@H](C)C3=C [Eribuline] | 0.4482 | 0.0692 | −0.1453 | −0.0193 | Sensitive (S+) | 4.4627 | −0.1620 | −0.0329 | −0.4785 | Sensitive (S++) |  |  |  |  | 
4 | Cn1cnc2c(F)c(Nc3ccc(Br)cc3F)c(C(=O)NOCCO)cc21 [Binimetinib] |  |  |  |  |  |  |  |  |  |  |  |  |  |  | Drug response score, conc. 1 ([4]; conc. 1: Cyclo 2.5 μg/ml, Vinc 10 ng/ml, Etop 1 μg/ml, Bini 100 ng/ml, Doxo 10 ng/ml, CTCs, t96h): 0.93; Drug response score, conc. 2 ([4]; conc. 2: Cyclo 10 μg/ml, Vinc 20 ng/ml, Etop 4 μg/ml, Bini 200 ng/ml, Doxo 30 ng/ml, CTCs, t96h): 1.18; Drug response score, conc. 3 ([4]; conc. 3: Cyclo 40 μg/ml, Vinc 40 ng/ml, Etop 20 μg/ml, Bini 400 ng/ml, Doxo 90 ng/ml, CTCs, t96h): 1.19; Drug response score, conc. 4 ([4]; conc. 4: Cyclo 160 μg/ml, Vinc 80 ng/ml, Etop 100 μg/ml, Bini 800 ng/ml, Doxo 270 ng/ml, CTCs, t96h): 1.06; effectiveness on Circulating Tumour Cells (CTCs) under laboratory conditions ([4]; sex cord stromal / ovarian tumour CTCs): not effective; Drug sensitivity as calculated by the assay (interpretation of Drug Response Scores) ([4]; sex cord stromal / ovarian tumour CTCs, Table 14): Resistant
5 | N.N.O=C([O-])C1(C(=O)[O-])CCC1.[Pt+2] [Carboplatin] |  |  |  |  |  | 6.6672 | −0.0506 | −0.8131 | −0.1322 | Sensitive (S++) | 1.4015 | 0.6497 | 0.4151 | 0.4317 | Drug sensitivity as calculated by the assay (interpretation of Drug Response Scores) ([5]; synovial sarcoma CTCs, Table 5): Sensitive (S+)
6 | CN(C)/N=N/c1[nH]cnc1C(N)=O [Dacarbazine] |  |  |  |  |  |  |  |  |  |  | 2.1563 | 0.0887 | 0.1691 | 0.5700 | 
